Measurements published in patent publication US9969714B2, “Carboxylic acid compounds useful for inhibiting microsomal prostaglandin E2 synthase-1” (Eli Lilly and Company, priority 2014, dated 2018).

Key:
human whole blood = assay: Human whole blood assay (LPS-induced PGE2, LC/MS/MS); format: cell-based; settings: LPS 100 μg/mL, 20-24 hours, n=6, read-out: IC50, inhibition of PGE2 formation
Method: Blood is collected from normal volunteer donors into sodium heparin VACUTAINER tubes. Donors are selected, in part, on their confirmation that they have not taken NSAIDs, aspirin, Celebrex®, or glucocorticoids within two weeks of the donation. All tubes/donor are pooled into 250 mL Corning conical centrifuge tubes and 436.5 μL/well is distributed into deep well polypropylene plates. Compounds are diluted in DMSO to 100× final and 4.5 μL/well in duplicate or triplicate is added to give 7 point curves. […] One hundred microliters is quantitatively transferred to Costar cluster tubes blocks and 400 μL/well of the methanol stop reagent and internal standards, d4-PGE2, d4-PGF2α, and […] are added. […]
Solid phase extraction is performed using Waters HLB 30 mg/bed 96 well plates on a vacuum manifold: Step 1, the matrix is washed with methanol (1 mL), followed by 0.1% formic acid in water (1 mL); Step 2, 400 μL sample is applied along with 0.1% formic acid in water (900 μL) and allowed to bind for 5 minutes; Step 3, the matrix is washed with 0.1% formic acid in water (600 μL), followed by 80/20 water/methanol (600 μL); Step 4, the products are eluted with 2-500 μL volumes of EtOAc; Step 5 the samples are dried under nitrogen and reconstituted in 75/25 water/acetonitrile with 0.1% formic acid (50 μL). The products are analyzed by LC/MS/MS.

[1] = system: Human epithelial lung carcinoma cell line A549; assay: Cell based assay for measuring eicosanoid selectivity (rhIL-1β-induced PGE2, EIA); settings: A549 cells, rhIL-1β 0.1 ng/mL, approximately 18 hours, read-out: IC50, inhibition of PGE2 formation
Method: Human epithelial lung carcinoma cell line A549 is obtained from ATCC (CCL-185) and maintained in cell growth medium (Kaighn's F12 cell culture medium+10% fetal bovine serum (FBS)), under standard 5% CO2 humidified atmosphere at 37° C. The cells are passaged at 1:3 twice per week.
For the assays, cells are harvested from flasks by washing once with phosphate buffered saline (PBS), then once with Trypsin-EDTA. After 3-5 minutes at 37° C., the cells are suspended in cell growth medium and centrifuged at 2,000 rpm, 25° C., for 5 minutes. The supernatant is aspirated and the cell pellet is re-suspended in cell growth medium. The cell number is determined by counting an aliquot of cells which has been diluted in PBS and Trypan blue on a hemocytometer. Cells are plated at 40,000/well in 96 well Falcon plates 24 hours prior to treatment. Compounds are diluted in DMSO to 100× of the final concentration in Screen Mates tubes. The medium is removed from the cells and fresh medium (90 μL/well) is added to the cells. The compounds are added at 1 μL/well, n=2, to give seven concentrations each. Cells are pretreated with compounds for 30 minutes at 37° C., 5% CO2. […] After approximately 90-120 minutes at room temperature on an orbital shaker at 100 rpm, the plates are read at A412 on a plate reader. […]

IC50 (human whole blood): 5.9 ± 3.4 nM
IC50 [1]: 5.3 nM
SMILES: Cc1cccc2ccc(N3CCC(C(=O)N[C@H]4CCC[C@H]4CCc4ccccc4C(=O)O)CC3)nc12 [Example 1, 2-(2-((1S,2S)-2-(1-(8-Methylquinolin-2-yl)piperidine-4-carboxamido)cyclopentyl)ethyl)benzoic acid]
